Experimental data reported in ChEMBL document CHEMBL5390229, “Inhibiting HCMV pUL89-C Endonuclease with Metal-Binding Compounds” (J Med Chem, 2023).

Tests used:
[1] = biological target: Hepatitis C virus NS5B RNA-dependent RNA polymerase (Hepatitis C virus, UniProt Q8JXU8); assay: Inhibition of Hepatitis C virus NS5B polymerase; set-up: species or system Hepacivirus hominis
[2] = biological target: T1, Tripartite terminase subunit 3 (Human betaherpesvirus 5, UniProt P16732); assay: Inhibition of Human Cytomegalovirus C-terminal UL89 […] using (5-tcggtgcgggcctcttcgctattacgccagctggcgaaagggggatgtgctgcaaggcga as a substrate preincubated for 15 mins followed by substrate addition and measured after 30 mins by plate reader endonuclease assay
T1 sequence (P16732 whole entry): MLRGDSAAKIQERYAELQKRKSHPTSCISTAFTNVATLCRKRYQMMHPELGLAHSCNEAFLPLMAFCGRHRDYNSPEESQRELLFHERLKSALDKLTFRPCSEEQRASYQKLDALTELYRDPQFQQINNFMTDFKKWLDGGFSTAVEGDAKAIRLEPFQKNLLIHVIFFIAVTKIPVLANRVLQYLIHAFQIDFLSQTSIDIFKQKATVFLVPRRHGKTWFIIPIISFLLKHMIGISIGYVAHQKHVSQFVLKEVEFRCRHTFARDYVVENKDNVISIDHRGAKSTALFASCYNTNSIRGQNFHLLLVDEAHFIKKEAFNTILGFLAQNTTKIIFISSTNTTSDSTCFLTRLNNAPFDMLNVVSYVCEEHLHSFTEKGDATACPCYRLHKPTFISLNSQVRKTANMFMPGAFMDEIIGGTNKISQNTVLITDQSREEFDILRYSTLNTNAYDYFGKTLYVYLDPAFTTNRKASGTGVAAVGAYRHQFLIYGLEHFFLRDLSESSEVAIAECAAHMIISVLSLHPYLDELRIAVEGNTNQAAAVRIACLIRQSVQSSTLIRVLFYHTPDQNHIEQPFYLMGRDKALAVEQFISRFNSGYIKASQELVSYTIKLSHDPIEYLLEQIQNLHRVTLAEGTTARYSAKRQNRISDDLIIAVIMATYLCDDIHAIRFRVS

[3] = Permeability of the compound at pH 7.4 by PAMPA method; assay type: ADME; conditions: for Papp: read-out: permeability
Cytomegalovirus [4] = assay: Antiviral activity against Human Cytomegalovirus assessed as inhibition of viral growth at 10 uM relative to control; assay type: functional; conditions: Human betaherpesvirus 5
Cytomegalovirus [5] = assay: Antiviral activity against Human Cytomegalovirus; conditions: Human betaherpesvirus 5
[6] = Cytotoxicity against human HFF-1 cells assessed as induction of cell death incubated for 24 hrs by MTT assay; assay type: toxicity, cell-based
[7] = biological target: T2, Human immunodeficiency virus type 1 reverse transcriptase (Human immunodeficiency virus 1, UniProt Q72547); assay: Inhibition of HIV-1 reverse transcriptase associated RNA-dependent DNA polymerase
[8] = biological target: T2, Human immunodeficiency virus type 1 reverse transcriptase; assay: Inhibition of HIV-1 RNase H polymerase activity
[9] = system: Human immunodeficiency virus 1; assay: Antiviral activity against HIV-1 assessed as viral growth inhibition; assay type: functional, organism-based
[10] = Cytotoxicity against human HFF cells assessed as reduction in cell viability incubated for 72 hrs by MTT assay; assay type: toxicity, cell-based
[11] = biological target: Human immunodeficiency virus type 1 integrase (Human immunodeficiency virus 1, UniProt Q7ZJM1, G140S/Q148K)
Chain of Human immunodeficiency virus type 1 integrase (Human immunodeficiency virus 1, UniProt Q7ZJM1, G140S/Q148K) (Q7ZJM1 entry or part of it G140S/Q148K): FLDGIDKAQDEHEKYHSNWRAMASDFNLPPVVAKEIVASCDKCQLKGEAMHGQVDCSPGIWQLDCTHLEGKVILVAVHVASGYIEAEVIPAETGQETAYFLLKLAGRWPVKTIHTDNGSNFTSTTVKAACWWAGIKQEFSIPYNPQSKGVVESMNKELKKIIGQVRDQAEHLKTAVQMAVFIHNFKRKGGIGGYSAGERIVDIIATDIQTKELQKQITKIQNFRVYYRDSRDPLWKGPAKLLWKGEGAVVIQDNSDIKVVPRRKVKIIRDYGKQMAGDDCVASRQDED

[12] = biological target: Human immunodeficiency virus type 1 integrase (Human immunodeficiency virus 1, UniProt Q7ZJM1, R263K); assay: Inhibition of HIV-1 integrase DTG-resistant R263K mutant
Chain of Human immunodeficiency virus type 1 integrase (Human immunodeficiency virus 1, UniProt Q7ZJM1, R263K) (Q7ZJM1 entry or part of it R263K): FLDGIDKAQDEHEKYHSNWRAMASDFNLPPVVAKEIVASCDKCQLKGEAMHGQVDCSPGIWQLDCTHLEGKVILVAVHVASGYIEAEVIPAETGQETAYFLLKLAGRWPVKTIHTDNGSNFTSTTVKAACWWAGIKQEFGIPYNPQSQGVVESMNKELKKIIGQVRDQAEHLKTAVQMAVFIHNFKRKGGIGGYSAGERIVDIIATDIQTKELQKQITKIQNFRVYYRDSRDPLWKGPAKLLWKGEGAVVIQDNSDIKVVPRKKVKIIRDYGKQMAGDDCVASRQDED

HFF = assay: Cytotoxicity against human HFF cells assessed as reduction in cell viability; assay type: functional
[13] = Selectivity index, ratio of CC50 for human HFF cells to EC50 for Human cytomegalovirus; assay type: toxicity; conditions: read-out: Ratio CC50/EC50
[14] = biological target: T3, Tripartite terminase subunit 3 (Human betaherpesvirus 5) (UniProt P16732); assay: Inhibition of Human Cytomegalovirus C-terminal UL89 […] using (5-tcggtgcgggcctcttcgctattacgccagctggcgaaagggggatgtgctgcaaggcga as a substrate preincubated for 15 mins followed by substrate addition at 20 uM and measured after 30 mins by plate reader endonuclease assay relative to control; conditions: time 45.0 min
T3 sequence (whole entry): T1 sequence (P16732 whole entry)

[15] = biological target: T2, Human immunodeficiency virus type 1 reverse transcriptase; assay: Inhibition of HIV-1 reverse transcriptase
Integrase = Integrase (Human immunodeficiency virus 1, UniProt Q76353, Q148K); assay: Inhibition of HIV-1 integrase Q148K mutant
Chain of Integrase (Q76353 entry or part of it Q148K): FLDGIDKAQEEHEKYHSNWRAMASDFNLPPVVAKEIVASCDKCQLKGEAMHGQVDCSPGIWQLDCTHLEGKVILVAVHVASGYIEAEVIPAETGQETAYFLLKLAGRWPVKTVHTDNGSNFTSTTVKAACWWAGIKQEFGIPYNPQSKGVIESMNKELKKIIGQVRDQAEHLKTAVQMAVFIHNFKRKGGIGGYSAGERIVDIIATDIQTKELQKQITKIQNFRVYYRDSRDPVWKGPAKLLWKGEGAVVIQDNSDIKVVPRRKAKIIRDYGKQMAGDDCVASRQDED

[16] = system: Human immunodeficiency virus 1; assay: Antiviral activity against HIV-1 harboring integrase L74M mutant; assay type: functional, organism-based
[17] = biological target: T1, Tripartite terminase subunit 3; assay: Inhibition of human Cytomegalovirus C-terminal UL89

Chain of Hepatitis C virus NS5B RNA-dependent RNA polymerase (Q8JXU8 whole entry): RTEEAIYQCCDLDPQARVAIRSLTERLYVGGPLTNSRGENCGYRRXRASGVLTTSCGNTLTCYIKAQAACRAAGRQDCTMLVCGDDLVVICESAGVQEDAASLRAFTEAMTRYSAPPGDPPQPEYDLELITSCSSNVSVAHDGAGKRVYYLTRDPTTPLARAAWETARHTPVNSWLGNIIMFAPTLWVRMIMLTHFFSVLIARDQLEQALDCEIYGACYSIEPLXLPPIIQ

IC50 [2] | EC50 (Cytomegalovirus [5]) | Compound | inhibition at 10 µM (Cytomegalovirus [4]) | also measured
– | – | CCOC(=O)c1cc(=O)c(O)c(C(=O)O)o1 | – | IC50 [1]: 2250 nM
1800 nM | – | Cc1ccc(CNC(=O)c2nc(Cl)c3cccnc3c2O)cc1 | – | –
– | – | CCOC(=O)c1cn(Cc2ccc(F)cc2)cc(O)c1=O | 40% | –
2200 nM | 1200 nM | Cc1ccc(-c2ccc(Nc3cc(=O)n(O)c(=O)n3C)cc2)cc1 | – | –
> 20000 nM | – | Cn1c(Nc2ccc(-c3ccc(C(F)(F)F)cc3)cc2)cc(=O)n(O)c1=O | – | –
14000 nM | – | O=C(O)c1c[nH]cc(O)c1=O | 13% | –
740 nM | 6200 nM | Cn1c(Nc2ccc(-c3cccc(C#N)c3)cc2)cc(=O)n(O)c1=O | – | –
– | – | CC(C)c1cn(COCc2ccccc2)c(=O)n(O)c1=O | – | IC50 [7]: 5400 nM; IC50 [8]: 2500 nM; EC50 [9]: 8 nM; CC50 at 72 h [10]: > 20000 nM
14000 nM | 15000 nM | COc1cccc(OC)c1-c1cccc(Nc2cc(=O)n(O)c(=O)[nH]2)c1 | – | –
> 25000 nM | – | O=C(O)c1cn(C2CC2)cc(O)c1=O | 2% | –
14000 nM | > 20000 nM | COc1ccc(-c2cccc(Nc3cc(=O)n(O)c(=O)[nH]3)c2)cc1 | – | –
> 25000 nM | – | O=C(O)c1cn(-c2ccccc2)cc(O)c1=O | 8% | –
– | – | O=C(NCc1ccccc1)c1nc(-c2cccs2)nc(O)c1O | – | IC50 [11]: 2600 nM
> 50000 nM | – | NC(=O)c1cn(Cc2ccc(F)cc2)cc(O)c1=O | 50% | –
1100 nM | > 20000 nM | O=c1cc(Nc2ccc(-c3ccc(O)cc3)cc2)[nH]c(=O)n1O | – | –
– | – | O=C(O)C(=O)CC(=O)c1cccc(Cc2ccccc2)c1 | – | IC50 [12]: 10 nM
– | 10000 nM | O=C(O)c1cn(Cc2ccc(F)cc2)cc(O)c1=O | 39% | –
> 20000 nM | > 20000 nM | Cn1c(Nc2ccc(-c3ccccc3)cc2)cc(=O)n(O)c1=O | – | –

IC50 [2] | EC50 (Cytomegalovirus [5]) | Compound | inhibition at 10 µM (Cytomegalovirus [4]) | also measured
6000 nM | 4000 nM | O=C(O)c1cn(Cc2ccc(F)c(Cl)c2)cc(O)c1=O | 53% | CC50 (HFF): > 200000 nM; selectivity ratio [13]: > 116
> 20000 nM | – | COc1ccc(-c2ccc(Nc3cc(=O)n(O)c(=O)n3C)cc2)cc1 | – | –
– | – | CCc1ccccc1Sc1cc(=O)n(O)c(=O)n1C | – | CC50 at 72 h [10]: 20000 nM
9300 nM | > 20000 nM | O=c1cc(Nc2ccc(-c3ccc(Cl)cc3)cc2)[nH]c(=O)n1O | – | –
– | – | O=C(c1cc(Cc2ccccc2)cc(CN2CCCS2(=O)=O)c1)c1ncc2cccnc2c1O | – | IC50 [12]: 10 nM
> 25000 nM | – | O=C(O)c1cn(Cc2ccccc2)cc(O)c1=O | 38% | –
– | – | CC(C)c1cn(COCc2ccccc2)c(=O)[nH]c1=O | – | CC50 (HFF): > 20000 nM; IC50 [15]: 40 nM; IC50 (Integrase): > 333000 nM; EC50 [16]: 13 nM
– | – | O=C(NCc1ccc(F)cc1)c1ncc2cccnc2c1O | – | IC50 [12]: 33 nM
– | – | O=C(O)c1nc(-c2cccs2)nc(O)c1O | – | IC50 [1]: 2600 nM
– | – | CN(Cc1ccc(F)cc1)C(=O)CC(=O)C(=O)O | – | IC50 [17]: 50000 nM
> 20000 nM | > 20000 nM | O=c1cc(Nc2cccc(-c3ccc(Cl)cc3)c2)[nH]c(=O)n1O | – | –
– | – | O=C(O)C(=O)CC(=O)c1ccc(N2CCCCC2)cc1 | – | IC50 [17]: 4500 nM
2800 nM | – | Cc1ccc(CNC(=O)c2nc(-c3ccccc3)c3cccnc3c2O)cc1 | – | –
> 25000 nM | – | CCn1cc(O)c(=O)c(C(=O)O)c1 | 14% | –
2900 nM | > 20000 nM | O=c1cc(Nc2ccc(-c3cccc(O)c3)cc2)[nH]c(=O)n1O | – | –
1200 nM | > 20000 nM | COc1cccc(-c2ccc(Nc3cc(=O)n(O)c(=O)[nH]3)cc2)c1 | – | –
– | – | O=c1c2cc(Cc3ccccc3)ccc2oc2ccc(O)c(O)c12 | – | IC50 [12]: 600 nM

Compound | IC50 [2] | EC50 (Cytomegalovirus [5]) | inhibition at 10 µM (Cytomegalovirus [4]) | also measured
O=c1[nH]c2ccsc2c(=O)n1O | 100 nM | – | -11% | Papp [3]: 0.1 ×10⁻⁶ cm/s
O=c1[nH]c2sc(-c3ccccc3)cc2c(=O)n1O | 1600 nM | – | 2.7% | Papp [3]: 0.5 ×10⁻⁶ cm/s
O=c1[nH]c2sc3c(c2c(=O)n1O)CCN(Cc1ccccc1)C3 | 1100 nM | 15000 nM | 59% | Papp [3]: 0.2 ×10⁻⁶ cm/s; CC50 at 24 h [6]: > 50000 nM
O=c1[nH]c2c3c(sc2c(=O)n1O)CCC3 | 220 nM | 220 nM | -32% | Papp [3]: 0.3 ×10⁻⁶ cm/s
O=c1[nH]c2sc3c(c2c(=O)n1O)CCC3 | 480 nM | – | 19% | Papp [3]: 0.4 ×10⁻⁶ cm/s
O=c1[nH]c2sc3c(c2c(=O)n1O)CCNC3 | 680 nM | – | 26% | Papp [3]: 0.1 ×10⁻⁶ cm/s
COc1cn(Cc2ccc(F)cc2)cc(C(=O)NCc2ccc(F)cc2F)c1=O | – | > 50000 nM | – | inhibition [14]: 6%
O=C(NCCc1ccc(F)cc1F)c1cn(Cc2ccc(F)cc2)cc(O)c1=O | – | 400 nM | – | inhibition [14]: 10%; CC50 (HFF): > 50000 nM; selectivity ratio [13]: > 40
O=c1[nH]c2sccc2c(=O)n1O | 400 nM | – | -0.95% | Papp [3]: 0.1 ×10⁻⁶ cm/s
O=c1[nH]c2cc(-c3ccccc3)sc2c(=O)n1O | 600 nM | 13000 nM | 59% | permeability [3]: 1.4 10^-6 cm/s; CC50 at 24 h [6]: > 50000 nM
O=C(NCc1ccc(F)cc1F)c1cn(Cc2ccc(F)cc2)cc(O)c1=O | – | 900 nM | – | inhibition [14]: 14%
O=c1[nH]c2sc(-c3ccc(Cl)cc3)cc2c(=O)n1O | 300 nM | 7600 nM | 33% | Papp [3]: 0.5 ×10⁻⁶ cm/s
O=c1[nH]c2sc3c(c2c(=O)n1O)CCCC3 | 790 nM | – | -3% | permeability [3]: 1.1 10^-6 cm/s
O=c1[nH]c2c3c(sc2c(=O)n1O)CCCC3 | 940 nM | – | -4.5% | Papp [3]: 1 ×10⁻⁶ cm/s
O=c1[nH]c2cc(-c3ccccc3)ccc2c(=O)n1O | 6400 nM | 13000 nM | 91% | Papp [3]: 2 ×10⁻⁶ cm/s
O=C1c2ccccc2C(c2ccccc2F)C(=O)N1O (centres undefined) | 1400 nM | 6200 nM | 68% | Papp [3]: 3 ×10⁻⁶ cm/s
O=C(NCc1ccc(F)cc1F)c1cn(Cc2ccc(F)cc2)ccc1=O | – | 6600 nM | – | inhibition [14]: 5%
